Measured values: patent US20250206724A1, “SUBSTITUTED 3-AMINO INDAZOLE DERIVATIVES AS KINASE INHIBITORS” (NERVIANO MEDICAL SCIENCES S.R.L., priority 2022, published 2025)
Where a name gives a salt, the structure may show the parent alone.

target: T1, CDK11A (Homo sapiens, UniProt Q9UQ88); conditions: displacement of SNS-032-Atto590 probe (0.002 μM) from CDK11A-p58 (0.032 uM), fluorescence polarization
T1 sequence (Q9UQ88 346-783): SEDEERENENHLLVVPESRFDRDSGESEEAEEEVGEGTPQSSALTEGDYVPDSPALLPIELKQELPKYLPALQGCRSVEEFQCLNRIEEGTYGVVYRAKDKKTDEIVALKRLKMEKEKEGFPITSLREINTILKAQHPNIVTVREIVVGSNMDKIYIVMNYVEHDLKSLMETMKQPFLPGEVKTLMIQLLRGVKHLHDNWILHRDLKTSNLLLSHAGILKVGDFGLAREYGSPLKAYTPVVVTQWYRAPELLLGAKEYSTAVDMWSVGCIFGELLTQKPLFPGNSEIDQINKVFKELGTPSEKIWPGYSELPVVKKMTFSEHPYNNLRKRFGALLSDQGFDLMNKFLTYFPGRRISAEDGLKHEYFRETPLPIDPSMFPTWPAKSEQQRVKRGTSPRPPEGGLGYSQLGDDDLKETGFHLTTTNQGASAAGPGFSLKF
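Note: compound preincubated 30 min with CDK11A-p58, then probe added and polarization (mP) read 15 min later, 0% displacement is probe plus enzyme, 100% is probe alone.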
Method: Biochemical Kinase Inhibition Assay on CDK11 in Displacement Assay Format
Displacement Assay Format
Fluorescence Polarization (FP) experiments were carried out at room temperature using no-binding black 384-well microplates (Corning, NY), in 50 mM Tris HCl, pH 8, 10 mM MgCl2, 1 mM DTT, 1 mM CHAPS in a final volume of 60 μl. The plate reader was the Pherastar microplate reader (BMG). Polarization values were read using excitation and emission wavelengths of 590 and 675 nm, respectively. All FP values are expressed as mP units.
Compounds were 4-folds serially diluted in 100% DMSO and added directly to the CDK11A-p58 solution using the pin tool (V & P Scientific): 0.2 ul of the different compound concentrations in 20 ul of enzyme solution. After an incubation of 30 minutes at r.t., 40 ul of probe solution were added. […] The Pherastar reading is performed after 15 minutes of all components incubation. For each assay, high controls (equivalent to 0% displacement) contain probe, CDK11A-p58, and 0.33% DMSO, whereas low controls (equivalent to 100% displacement) contain only probe and 0.33% DMSO. Controls are used for the Z′ and signal to background evaluation.
The data per each molecule are analyzed by Prism SW or an internally customized version of the SW package “Assay Explorer” which provides sigmoidal fittings of the ten-dilution curves for DC50 determination using a 4 parameters logistic equation:
where x is the logarithm of the inhibitor concentration, y is the response; y starts at bottom and goes to top with a sigmoid shape.

Structure (SMILES)	DC50
N#Cc1ccc(Cl)c(-c2ccc3[nH]nc(NC(=O)C4CC(NC5CCC5)C4)c3c2)c1 (stereo not drawn) [compound 153, N-[5-(2-Chloro-5-cyanophenyl)-1H-indazol-3-yl]-3-(cyclobutylamino)cyclobutanecarboxamide hydrochloride]	41 nM
Cc1ccc(-c2ccc3[nH]nc(NC(=O)C4CCN(C)CC4)c3c2)c(F)c1F [compound 132, N-[5-(2,3-Difluoro-4-methylphenyl)-1H-indazol-3-yl]-1-methylpiperidine-4-carboxamide hydrochloride]	409 nM
O=C(Nc1n[nH]c2ccc(-c3c(F)cccc3Cl)cc12)[C@@H]1CCCNC1 [compound 172, (3R)-N-[5-(2-Chloro-6-fluorophenyl)-1H-indazol-3-yl]piperidine-3-carboxamide hydrochloride]	42 nM
CC(C)OC(=O)n1nc(NC(=O)[C@@H]2CCC(C)(C)NC2)c2cc(-c3cc(C#N)ccc3Cl)ccc21 (single isomer, unassigned) [cpd 226, hydrochloride]	1010 nM
CC(C)N1CCC(C(=O)Nc2n[nH]c3ccc(-c4cc(C#N)ccc4Cl)cc23)CC1 [compound 143, N-[5-(2-Chloro-5-cyanophenyl)-1H-indazol-3-yl]-1-(propan-2-yl)piperidine-4-carboxamide hydrochloride]	89 nM
CN1CCC(C(=O)Nc2n[nH]c3ccc(-c4c(F)ccc(C#N)c4F)cc23)CC1 [compound 134, N-[5-(3-Cyano-2,6-difluorophenyl)-1H-indazol-3-yl]-1-methylpiperidine-4-carboxamide]	125 nM
O=C(Nc1n[nH]c2ccc(-c3ccc(O)cc3Cl)cc12)[C@@H]1CCCNC1 [cpd 6, (3R)-N-[5-(2-chloro-4-hydroxyphenyl)-1H-indazol-3-yl]piperidine-3-carboxamide hydrochloride]	23 nM
CN1CCC(C(=O)Nc2n[nH]c3ccc(-c4ccccc4C(F)(F)F)cc23)CC1 [cpd 104, 1-Methyl-N-{5-[2-(trifluoromethyl)phenyl]-1H-indazol-3-yl}piperidine-4-carboxamide hydrochloride]	330 nM
COC(=O)c1ccc(C#N)c(-c2ccc3[nH]nc(NC(=O)[C@@H]4CCCNC4)c3c2)c1 [cpd 40, Methyl 4-cyano-3-(3-{[(3R)-piperidin-3-ylcarbonyl]amino}-1H-indazol-5-yl)benzoate hydrochloride]	45 nM
COC(=O)c1ccc(Cl)c(-c2ccc3[nH]nc(NC(=O)[C@@H]4CCNC4)c3c2)c1 [cpd 37, Methyl 4-chloro-3-(3-{[(3R)-pyrrolidin-3-ylcarbonyl]amino}-1H-indazol-5-yl)benzoate hydrochloride]	26 nM
O=C(Nc1n[nH]c2ccc(-c3cc(O)ccc3Cl)cc12)[C@@H]1CCCNC1 [cpd 41, (3R)-N-[5-(2-Chloro-5-hydroxyphenyl)-1H-indazol-3-yl]piperidine-3-carboxamide hydrochloride]	33 nM
CN1CCC(C(=O)Nc2n[nH]c3ccc(-c4ccc(C(N)=O)cc4)cc23)CC1 [cpd 109, N-[5-(4-Carbamoylphenyl)-1H-indazol-3-yl]-1-methylpiperidine-4-carboxamide hydrochloride]	967 nM
O=C(Nc1n[nH]c2ccc(-c3c(Cl)cccc3Cl)cc12)[C@H]1CCNC1 [compound 168, (3S)-N-[5-(2,6-Dichlorophenyl)-1H-indazol-3-yl]pyrrolidine-3-carboxamide hydrochloride]	98 nM
CCCCOc1ccc2[nH]nc(NC(=O)[C@@H]3CCCNC3)c2c1 [cpd 231, (3R)-N-(5-Butoxy-1H-indazol-3-yl)piperidine-3-carboxamide hydrochloride]	71 nM
CN1CCC(C(=O)Nc2n[nH]c3ccc(-c4ccc(Cl)cc4Cl)cc23)CC1 [cpd 106, N-[5-(2,4-Dichlorophenyl)-1H-indazol-3-yl]-1-methylpiperidine-4-carboxamide hydrochloride]	259 nM
N#Cc1ccc(Cl)c(-c2ccc3[nH]nc(NC(=O)C4CC(NC5CCCC5)C4)c3c2)c1 (stereo not drawn) [compound 154, N-[5-(2-Chloro-5-cyanophenyl)-1H-indazol-3-yl]-3-(cyclopentylamino)cyclobutanecarboxamide hydrochloride]	40 nM
O=C(Nc1n[nH]c2ccc(-c3cc(F)ccc3C(F)(F)F)cc12)[C@@H]1CCCNC1 [cpd 46, (3R)-N-{5-[5-Fluoro-2-(trifluoromethyl)phenyl]-1H-indazol-3-yl}piperidine-3-carboxamide hydrochloride]	37 nM
O=C(Nc1n[nH]c2ccc(-c3ccc(F)cc3F)cc12)[C@@H]1CCCNC1 [cpd 30, (3R)-N-[5-(2,4-Difluorophenyl)-1H-indazol-3-yl]piperidine-3-carboxamide hydrochloride]	38 nM

Structure (SMILES)	DC50
CN1CCC(C(=O)Nc2n[nH]c3ccc(-c4cc([N+](=O)[O-])ccc4F)cc23)CC1 [cpd 115, N-[5-(2-Fluoro-5-nitrophenyl)-1H-indazol-3-yl]-1-methylpiperidine-4-carboxamide hydrochloride]	165 nM
CC(C)c1ccc(Cl)c(-c2ccc3[nH]nc(NC(=O)[C@@H]4CCCNC4)c3c2)c1 [cpd 48, (3R)-N-{5-[2-Chloro-5-(propan-2-yl)phenyl]-1H-indazol-3-yl}piperidine-3-carboxamide hydrochloride]	310 nM
O=C(Nc1n[nH]c2ccc(-c3ccc(C(F)(F)F)cc3Cl)cc12)[C@@H]1CCCNC1 [cpd 44, (3R)-N-{5-[2-Chloro-4-(trifluoromethyl)phenyl]-1H-indazol-3-yl}piperidine-3-carboxamide hydrochloride]	156 nM
CN1CCC(C(=O)Nc2n[nH]c3ccc(-c4c(F)cccc4Cl)cc23)CC1 [cpd 64, N-[5-(2-Chloro-6-fluorophenyl)-1H-indazol-3-yl]-1-methylpiperidine-4-carboxamide hydrochloride]	66 nM
CN1CCC(C(=O)Nc2n[nH]c3ccc(-c4cc([N+](=O)[O-])ccc4Cl)cc23)CC1 [compound 137, N-[5-(2-Chloro-5-nitrophenyl)-1H-indazol-3-yl]-1-methylpiperidine-4-carboxamide trifluoroacetate]	70 nM
O=C(Nc1n[nH]c2ccc(-c3c(F)cccc3Cl)cc12)[C@H]1CCCNC1 [compound 173, (3S)-N-[5-(2-Chloro-6-fluorophenyl)-1H-indazol-3-yl]piperidine-3-carboxamide hydrochloride]	391 nM
CCOc1ccc2[nH]nc(NC(=O)[C@@H]3CCCNC3)c2c1 [cpd 229, (3R)-N-(5-Ethoxy-1H-indazol-3-yl)piperidine-3-carboxamide hydrochloride]	20 nM
CC(C)(C)C(=O)OCOC(=O)N1CCC[C@@H](C(=O)Nc2n[nH]c3ccc(-c4cc(C#N)ccc4Cl)cc23)C1 [compound 193, [(2,2-Dimethylpropanoyl)oxy]methyl (3R)-3-{[5-(2-chloro-5-cyanophenyl)-1H-indazol-3-yl]carbamoyl}-piperidine-1-carboxylate]	340 nM
CC(C)(CO)CN1CCC(C(=O)Nc2n[nH]c3ccc(-c4c(Cl)cccc4Cl)cc23)CC1 [cpd 71, N-[5-(2,6-Dichlorophenyl)-1H-indazol-3-yl]-1-(3-hydroxy-2,2-dimethylpropyl)piperidine-4-carboxamide]	135 nM
CN1CCC(C(=O)Nc2n[nH]c3ccc(-c4c(F)cccc4F)cc23)CC1 [cpd 105, N-[5-(2,6-Difluorophenyl)-1H-indazol-3-yl]-1-methylpiperidine-4-carboxamide hydrochloride]	364 nM
CNC1CC(C(=O)Nc2n[nH]c3ccc(-c4cc(C#N)ccc4Cl)cc23)C1 (stereo not drawn) [compound 146, N-[5-(2-Chloro-5-cyanophenyl)-1H-indazol-3-yl]-3-(methylamino)cyclobutanecarboxamide hydrochloride]	23 nM
O=C(C[C@@H]1CCCN1)Nc1n[nH]c2ccc(-c3c(Cl)cccc3Cl)cc12 [compound 162, N-[5-(2,6-Dichlorophenyl)-1H-indazol-3-yl]-2-[(2S)-pyrrolidin-2-yl]acetamide hydrochloride]	792 nM
O=C(Nc1n[nH]c2ccc(-c3cc(F)ccc3Cl)cc12)[C@@H]1CCCNC1 [cpd 52, (3R)-N-[5-(2-Chloro-5-fluorophenyl)-1H-indazol-3-yl]piperidine-3-carboxamide hydrochloride]	42 nM
CN1CCC(C(=O)Nc2n[nH]c3ccc(-c4cccc(F)c4)cc23)CC1 [cpd 101, N-[5-(3-Fluorophenyl)-1H-indazol-3-yl]-1-methylpiperidine-4-carboxamide hydrochloride]	692 nM
CN1CCC(C(=O)Nc2n[nH]c3ccc(-c4cccc(Cl)c4Cl)cc23)CC1 [cpd 97, N-[5-(2,3-Dichlorophenyl)-1H-indazol-3-yl]-1-methylpiperidine-4-carboxamide hydrochloride]	643 nM
CN1CCC(C(=O)Nc2n[nH]c3ccc(-c4ccccc4C#N)cc23)CC1 [cpd 79, N-[5-(2-Cyanophenyl)-1H-indazol-3-yl]-1-methylpiperidine-4-carboxamide p-toluensulfonate]	277 nM
COc1c(F)cc(F)c(-c2ccc3[nH]nc(NC(=O)C4CCN(C)CC4)c3c2)c1F [compound 131, 1-Methyl-N-[5-(2,4,6-trifluoro-3-methoxyphenyl)-1H-indazol-3-yl]piperidine-4-carboxamide hydrochloride]	438 nM
NCCC(=O)Nc1n[nH]c2ccc(-c3c(Cl)cccc3Cl)cc12 [compound 175, N-[5-(2,6-Dichlorophenyl)-1H-indazol-3-yl]-b-alaninamide hydrochloride]	339 nM
